Experimental data from ChEMBL document CHEMBL5370538, “Discovery of novel 6-p-tolyl-3-(3,4,5-trimethoxybenzyl)-7H-[1,2,4]triazolo[3,4-b][1,3,4]thiadiazine derivative as a potent tubulin inhibitor with promising in vivo antitumor activity” (Eur J Med Chem, 2023).

Legend:
[1] = Oral bioavailability in Sprague-Dawley rat at 10 mg/kg measured upto 24 hrs by LC-MS/MS analysis; format: ADME, organism-based; settings: in vivo
[2] = target: Tubulin (Homo sapiens) (UniProt P68371+Q9H4B7+P0DPH7+P68366+Q13509+Q71U36+P04350+Q3ZCM7+P07437+P68363+Q9BQE3+Q6PEY2+Q13885+Q9BVA1+Q9BUF5); assay: Inhibition of tubulin polymerization (unknown origin) at 10 uM measured for 20 mins in presence of GTP by spectrophotometry analysis relative to control; format: protein-complex assay
[3] = AUC (0-t) in Sprague-Dawley rat at 10 mg/kg,po measured upto 24 hrs by LC-MS/MS analysis; format: ADME, organism-based; parameters: dose 10 mg/kg, time < 24 hrs, route po; settings: in vivo
[4] = AUC (0-infinity) in Sprague-Dawley rat at 2 mg/kg,iv measured upto 24 hrs by LC-MS/MS analysis; format: ADME, organism-based; parameters: dose 2 mg/kg, time < 24 hrs, route iv; settings: in vivo
[5] = MRT (0-t) in Sprague-Dawley rat at 2 mg/kg,iv measured upto 24 hrs by LC-MS/MS analysis; format: ADME, organism-based; settings: in vivo
[6] = Half life in Sprague-Dawley rat at 2 mg/kg,iv measured upto 24 hrs by LC-MS/MS analysis; format: ADME, organism-based; settings: in vivo
[7] = Tmax in Sprague-Dawley rat at 10 mg/kg,po measured upto 24 hrs by LC-MS/MS analysis; format: ADME, organism-based; settings: in vivo
[8] = system: HeLa; assay: Induction of cell cycle arrest in human HeLa cells assessed as accumulation of cells at G2/M phase at 0.03 uM incubated for 24 hrs by propidium iodide staining based flow cytometry (reference value: 17.38 %); format: functional
[9] = system: HeLa; assay: Induction of cell cycle arrest in human HeLa cells assessed as accumulation of cells at G2/M phase at 0.12 uM incubated for 24 hrs by propidium iodide staining based flow cytometry (reference value: 17.38 %); format: functional
[10] = system: HeLa; assay: Induction of cell cycle arrest in human HeLa cells assessed as accumulation of cells at S phase at 0.12 uM incubated for 24 hrs by propidium iodide staining based flow cytometry (reference value: 20.22 %); format: functional
[11] = system: HeLa; assay: Induction of apoptosis in human HeLa cells assessed as viable cells at 0.03 uM incubated for 24 hrs Annexin V-FITC/PI staining based flow cytometry analysis (Rvb= 95.9 %); format: functional; settings: read-out: Activity
[12] = system: HeLa; assay: Induction of apoptosis in human HeLa cells assessed as early apoptotic cells at 0.06 uM incubated for 24 hrs Annexin V-FITC/PI staining based flow cytometry analysis (Rvb= 1.85 %); format: functional
[13] = system: HeLa; assay: Induction of apoptosis in human HeLa cells assessed as late apoptotic cells at 0.12 uM incubated for 24 hrs Annexin V-FITC/PI staining based flow cytometry analysis (Rvb= 2.13 %); format: functional

COc1cc(Cc2nnc3n2N=C(c2ccc(C)cc2)CS3)cc(OC)c1OC
bioavailability [1]: 11.6% | inhibition [2]: 43% | AUC(0-t) at 24 h [3]: 122 ng·h/mL | AUC(0-inf) [4]: 310 ng·h/mL | MRT last at 24 h [5]: 1.2 h | half-life [6]: 5.3 h | Tmax [7]: 4.3 h | Activity [8]: 27.37% | Activity [9]: 91.09% | Activity [10]: 8.4% | viability at 0.03 µM [11]: 76% | Activity [12]: 17.4% | Activity [13]: 9.21%
